Laboratory results taken from patent US20220330549A1, “USE OF N-BENZYLBENZAMIDE-BASED COMPOUND AS HERBICIDE” (Northwest A&F University, priority 2020, published 2022).

Key:
Assay type in all cases: in vivo
[1] = test system: Humulus scandens; assay: Herbicidal activity test for indoor pre-emergence soil treatment; conditions: 150 g a.i./ha, visual inspection 21 days after treatment
Method: (§1) The herbicidal activity test for indoor pre-emergence soil treatment was performed with some of the N-benzylbenzamide-based compounds of general formula I or II with reference to the method of NY/T 1155.3-2006. Neutral sandy loam soil having an organic content of ≤2% was added to fill ⅘ of the pot, and the soil was completely moistened by infiltrating irrigation from the bottom of the pot. The seeds of the test weed were evenly spread on the soil surface, and then covered by 0.5 cm to 2.0 cm of soil depending on the seed size. Representative compounds in the examples were used to prepare emulsifiable concentrates (10%), and spray treatments to the soil were performed 24 hours after the sowing with the test agents diluted with water, at a spraying dosage of 150 g(a.i.)/ha. Then, the results were investigated by visual inspection 21 days after the treatments. The herbicidal activity of the agent was evaluated on a scale of 1-9 levels according to the symptoms and severity of damage to the test weeds.
(§2) Level 2: equivalent to 0 to 2.5% of the weed in the blank control area;
(§3) Level 3: equivalent to 2.6 to 5% of the weed in the blank control area;
(§4) Level 4: equivalent to 5.1 to 10% of the weed in the blank control area;
(§5) Level 5: equivalent to 10.1 to 15% of the weed in the blank control area;
(§6) Level 6: equivalent to 15.1 to 25% of the weed in the blank control area;
(§7) Level 7: equivalent to 25.1 to 35% of the weed in the blank control area;
(§8) Level 8: equivalent to 35.1 to 67.5% of the weed in the blank control area; and
(§9) Level 9: equivalent to 67.6 to 100% of the weed in the blank control area.

[2] = test system: Amaranthus retroflexus; assay: Herbicidal activity test for indoor post-emergence spraying on stems and leaves; parameters: key: grade level by weed remaining vs blank control, e.g. 5 = 10.1-15%; conditions: 150 g a.i./ha, visual inspection 21 days after treatment
Method: (§10) The post-emergence herbicidal activity test was performed with some of the N-benzylbenzamide-based compounds of general formula I or II with reference to the method of NY/T 1155.4-2006. […] After the sowing, the weed was moved to a greenhouse for regular cultivation. […] Then, the results were investigated by visual inspection 21 days after the treatments. […] Level 5: equivalent to 10.1 to 15% of the weed in the blank control area; Level 6: equivalent to 15.1 to 25% of the weed in the blank control area; Level 7: equivalent to 25.1 to 35% of the weed in the blank control area; Level 8: equivalent to 35.1 to 67.5% of the weed in the blank control area; and […]

[3] = test system: Barnyard grass; assay: as above; parameters: key: grade level by weed remaining vs blank control, e.g. 5 = 10.1-15%; conditions: 150 g a.i./ha, visual inspection 21 days after treatment
Method: as §10

[4] = test system: green bristlegrass; assay: as above; parameters: key: grade level by weed remaining vs blank control, e.g. 5 = 10.1-15%; conditions: 150 g a.i./ha, visual inspection 21 days after treatment
Method: as §10

[5] = test system: Piemarker; assay: as above; parameters: key: grade level by weed remaining vs blank control, e.g. 5 = 10.1-15%; conditions: 150 g a.i./ha, visual inspection 21 days after treatment
Method: as §10

[6] = test system: Humulus scandens; assay: as above; parameters: key: grade level by weed remaining vs blank control, e.g. 5 = 10.1-15%; conditions: 150 g a.i./ha, visual inspection 21 days after treatment
Method: as §10

[7] = test system: Digitaria sanguinalis; assay: as above; parameters: key: grade level by weed remaining vs blank control, e.g. 5 = 10.1-15%; conditions: 150 g a.i./ha, visual inspection 21 days after treatment
Method: as §10

[8] = test system: Cyperaceae; assay: Post-emergence herbicidal activity test in a paddy field; parameters: key: level scale; higher level = more weed left vs blank control; conditions: 150 g a.i./ha (penoxsulam control 250 g(a.i.)/h)
Method: (§11) The post-emergence herbicidal activity test was performed in a paddy field with some of the N-benzylbenzamide-based compounds of general formula I or II with reference to the method of GB/T 17980.40-2000. […] Spray treatments were performed in the stage where 4 leaves to 5 leaves were grown for the rice seedlings which was about 1 month after the sowing. Representative compounds in the examples were used to prepare emulsifiable concentrates (10%), and spray treatments were performed with the concentrates in water at a dosage of 150 g(a.i.)/ha, and repeated 4 times for each treatment, and the area was 50 m^2. 25 g/L of penoxsulam suspension was used as a control agent and applied at a dosage of 250 g(a.i.)/h. The results were investigated by a value estimating survey method 15 days and 30 days after the treatments. The relative weed population quantities were estimated by comparing each agent treated area with an adjacent blank control area, and the results of which were investigated with the following grading standard method using the overall coverage of the weed population as an indicator.
as §2, §3, §4, §5, §6, §7, §8, §9

[9] = test system: Gramineae; assay: as above; parameters: key: level scale; higher level = more weed left vs blank control; conditions: 150 g a.i./ha (penoxsulam control 250 g(a.i.)/h)
Method: as §11, §2, §3, §4, §5, §6, §7, §8, §9

[10] = test system: Broadleaf weed; assay: as above; parameters: key: level scale; higher level = more weed left vs blank control; conditions: 150 g a.i./ha (penoxsulam control 250 g(a.i.)/h)
Method: as §11, §2, §3, §4, §5, §6, §7, §8, §9

[11] = test system: Barnyard grass; assay: Herbicidal activity test for indoor pre-emergence soil treatment; parameters: key: level 1-9; higher = more weed remaining vs blank control; conditions: 150 g a.i./ha, visual inspection 21 days after treatment
Method: as §1, §2, §3, §4, §5, §6, §7, §8, §9

[12] = test system: green bristlegrass; assay: as above; parameters: key: level 1-9; higher = more weed remaining vs blank control; conditions: 150 g a.i./ha, visual inspection 21 days after treatment
Method: as §1, §2, §3, §4, §5, §6, §7, §8, §9

[13] = test system: Piemarker; assay: as above; parameters: key: level 1-9; higher = more weed remaining vs blank control; conditions: 150 g a.i./ha, visual inspection 21 days after treatment
Method: as §1, §2, §3, §4, §5, §6, §7, §8, §9

[14] = test system: Amaranthus retroflexus; assay: Field test for weed control in a corn field; conditions: 150 g a.i./ha, 30 days after treatment
Method: (§12) The weed control efficacy field test was performed in a corn field with some of the N-benzylbenzamide-based compounds of general formula I or II with reference to the method of GB/T 17980.42-2000. […] Spray treatments were performed in the stage where 2 leaves to 5 leaves were grown for the corns after the sowing. Representative compounds in the examples were used to prepare emulsifiable concentrates (10%), and spray treatments were performed with the concentrates in water at a dosage of 150 g(a.i.)/ha, and repeated 4 times for each treatment, and the area was 20 m^2. Oil dispersion with 25% of mesotrione was used as a control agent and applied at a dosage of 150 g(a.i.)/h. […] The herbicidal activities of the agents were evaluated on a scale of 1-9 levels according to the symptoms and severity of damage to the test weeds.
as §2, §3, §4, §5, §6, §7, §8, §9

[15] = test system: Chenopodium album; assay: Field test for weed control in a corn field; conditions: 150 g a.i./ha, after treatment
Method: as §12, §2, §3, §4, §5, §6, §7, §8, §9

[16] = test system: Barnyard grass; assay: Field test for weed control in a corn field; conditions: 150 g a.i./ha, 30 days after treatment
Method: as §12, §2, §3, §4, §5, §6, §7, §8, §9

[17] = test system: green bristlegrass; assay: Field test for weed control in a corn field; conditions: 150 g a.i./ha, after treatment
Method: as §12, §2, §3, §4, §5, §6, §7, §8, §9

[18] = test system: Acalypha australis; assay: Field test for weed control in a corn field; conditions: 150 g a.i./ha, after treatment
Method: as §12, §2, §3, §4, §5, §6, §7, §8, §9

[19] = test system: Solanum nigrum; assay: Field test for weed control in a corn field; conditions: 150 g a.i./ha, 30 days after treatment
Method: as §12, §2, §3, §4, §5, §6, §7, §8, §9

[20] = test system: Digitaria sanguinalis; assay: Field test for weed control in a corn field; conditions: 150 g a.i./ha, after treatment
Method: as §12, §2, §3, §4, §5, §6, §7, §8, §9

[21] = test system: nutgrass flatsedge; assay: Field test for weed control in a corn field; conditions: 150 g a.i./ha, after treatment
Method: as §12, §2, §3, §4, §5, §6, §7, §8, §9

[22] = test system: Portulaca oleracea; assay: Field test for weed control in a corn field; conditions: 150 g a.i./ha, after treatment
Method: as §12, §2, §3, §4, §5, §6, §7, §8, §9

[23] = test system: goosegrass; assay: Field test for weed control in a corn field; conditions: 150 g a.i./ha, after treatment
Method: as §12, §2, §3, §4, §5, §6, §7, §8, §9

[24] = test system: Convolvulus arvensis; assay: Field test for weed control in a corn field; conditions: 150 g a.i./ha, after treatment
Method: as §12, §2, §3, §4, §5, §6, §7, §8, §9

[25] = test system: Amaranthus retroflexus; assay: Herbicidal activity test for indoor pre-emergence soil treatment; parameters: key: 1-9 levels; higher = more weed remaining vs blank control; conditions: 150 g a.i./ha, visual inspection 21 days after treatment
Method: as §1, §2, §3, §4, §5, §6, §7, §8, §9

[26] = test system: Digitaria sanguinalis; assay: as above; parameters: key: 1-9 levels; higher = more weed remaining vs blank control; conditions: 150 g a.i./ha, visual inspection 21 days after treatment
Method: as §1, §2, §3, §4, §5, §6, §7, §8, §9

SMILES	Herbicidal Activity Humulus scandens [1]	Herbicidal Activity Amaranthus retroflexus [2]	Herbicidal Activity Barnyard grass [3]	Herbicidal Activity Green bristlegrass [4]	Herbicidal Activity Piemarker [5]	Herbicidal Activity Humulus scandens [6]	Herbicidal Activity Digitaria sanguinalis [7]	Herbicidal activity 15 days after treatment Cyperaceae [8]	Herbicidal activity 30 days after treatment Cyperaceae [8]	Herbicidal activity 15 days after treatment Gramineae [9]	Herbicidal activity 30 days after treatment Gramineae [9]	Herbicidal activity 15 days after treatment Broadleaf weed [10]	Herbicidal activity 30 days after treatment Broadleaf weed [10]	Herbicidal Activity Barnyard grass [11]	Herbicidal Activity Green bristlegrass [12]	Herbicidal Activity Piemarker [13]	Post-emergence weed control effect, Amaranthus retroflexus [14]	Post-emergence weed control effect, Chenopodium album [15]	Post-emergence weed control effect, Barnyard grass [16]	Post-emergence weed control effect, Green bristlegrass [17]	also measured
COc1ccccc1C(=O)NCc1cccc(F)c1 [Compound A01, N-(3-fluorobenzylamine)-2-methoxybenzamide]	4 (equivalent to 5.1 to 10% of the weed in the blank control area)	1	1	1	1	1	1	1	2 (equivalent to 0 to 2.5% of the weed in the blank control area)	2 (equivalent to 0 to 2.5% of the weed in the blank control area)	2 (equivalent to 0 to 2.5% of the weed in the blank control area)	1	2 (equivalent to 0 to 2.5% of the weed in the blank control area)	1	1	3 (equivalent to 2.6 to 5% of the weed in the blank control area)	1	1	2 (equivalent to 0 to 2.5% of the weed in the blank control area)	1	Post-emergence weed control effect, Acalypha australis [18]: 2 (equivalent to 0 to 2.5% of the weed in the blank control area); Post-emergence weed control effect, Solanum nigrum [19]: 2 (equivalent to 0 to 2.5% of the weed in the blank control area); Post-emergence weed control effect, Digitaria sanguinalis [20]: 2 (equivalent to 0 to 2.5% of the weed in the blank control area); Post-emergence weed control effect, Nutgrass flatsedge [21]: 2 (equivalent to 0 to 2.5% of the weed in the blank control area); Post-emergence weed control effect, Portulaca oleracea [22]: 1; Post-emergence weed control effect, Goose grass [23]: 2 (equivalent to 0 to 2.5% of the weed in the blank control area); Post-emergence weed control effect, Convolvulus arvensis [24]: 1; Herbicidal Activity Amaranthus retroflexus [25]: 3 (equivalent to 2.6 to 5% of the weed in the blank control area); Herbicidal Activity Digitaria sanguinalis [26]: 1
CS(=O)(=O)c1cc(C(F)(F)F)ccc1C(=O)c1cnoc1C1CC1 [Isoxaflutole, reference compound]	1	–	–	–	–	–	–	–	–	–	–	–	–	1	1	1	–	–	–	–	Herbicidal Activity Amaranthus retroflexus [25]: 1; Herbicidal Activity Digitaria sanguinalis [26]: 1
CS(=O)(=O)c1ccc(C(=O)C2C(=O)CCCC2=O)c([N+](=O)[O-])c1 [Mesotrione, reference compound]	–	1	1	1	1	1	1	–	–	–	–	–	–	–	–	–	1	1	1	1	Post-emergence weed control effect, Acalypha australis [18]: 2 (equivalent to 0 to 2.5% of the weed in the blank control area); Post-emergence weed control effect, Solanum nigrum [19]: 1; Post-emergence weed control effect, Digitaria sanguinalis [20]: 2 (equivalent to 0 to 2.5% of the weed in the blank control area); Post-emergence weed control effect, Nutgrass flatsedge [21]: 1; Post-emergence weed control effect, Portulaca oleracea [22]: 1; Post-emergence weed control effect, Goose grass [23]: 2 (equivalent to 0 to 2.5% of the weed in the blank control area); Post-emergence weed control effect, Convolvulus arvensis [24]: 1
COc1cnc(OC)n2nc(NS(=O)(=O)c3c(OCC(F)F)cccc3C(F)(F)F)nc12 [Penoxsulam, reference compound]	–	–	–	–	–	–	–	2 (equivalent to 0 to 2.5% of the weed in the blank control area)	2 (equivalent to 0 to 2.5% of the weed in the blank control area)	2 (equivalent to 0 to 2.5% of the weed in the blank control area)	1	2 (equivalent to 0 to 2.5% of the weed in the blank control area)	1	–	–	–	–	–	–	–	–
